Data: US9150575B2, “Piperidinylpyrazolopyridine derivative” (Daiichi Sankyo Company, Limited, priority 2012, dated 2015)

molecular target: T1, LCAT (Homo sapiens, UniProt P04180); assay: LCAT Activity Measurement (In Vitro); assay type: biochemical; conditions: EC50 of LCAT activation; HDL3 fraction from plasma of a healthy person as enzyme source and acceptor; [14C]cholesterol; 37° C., approximately 16 hours
T1 construct: The obtained fraction was dialyzed against phosphate-buffered saline (pH 7.4) and used as an enzyme source and an acceptor for LCAT; from tissue; host or cells: HDL3 fraction (1.125<specific gravity<1.210 g/mL) of plasma from a healthy person
T1 sequence (P04180 25-440): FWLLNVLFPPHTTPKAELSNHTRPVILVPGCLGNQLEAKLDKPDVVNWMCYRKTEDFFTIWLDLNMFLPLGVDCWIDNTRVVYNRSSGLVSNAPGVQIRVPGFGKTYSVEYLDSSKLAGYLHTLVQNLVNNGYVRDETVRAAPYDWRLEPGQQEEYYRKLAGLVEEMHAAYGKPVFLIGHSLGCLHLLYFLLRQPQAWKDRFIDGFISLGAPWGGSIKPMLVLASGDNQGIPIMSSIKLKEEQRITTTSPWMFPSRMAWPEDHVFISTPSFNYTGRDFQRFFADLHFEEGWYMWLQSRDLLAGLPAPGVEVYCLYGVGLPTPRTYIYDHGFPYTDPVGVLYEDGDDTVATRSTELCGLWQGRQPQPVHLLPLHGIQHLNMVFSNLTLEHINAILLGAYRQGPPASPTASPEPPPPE
Procedure: A fraction composed of HDL3 (1.125<specific gravity<1.210 g/mL) was obtained from the plasma of a healthy person by density gradient centrifugation. The obtained fraction was dialyzed against phosphate-buffered saline (pH 7.4) and used as an enzyme source and an acceptor for LCAT. Each test drug was prepared by dissolution in dimethyl sulfoxide. [14C]Cholesterol containing DTNB (Ellman's reagent, final concentration: 0.5 mM), mercaptoethanol (final concentration: 12.5 mM), and 0.6% bovine serum albumin was added to phosphate-buffered saline (pH 7.4) containing 1 mg/mL HDL3, and the test drug was further added thereto at varying concentrations to adjust the whole amount to 80 μL. This mixture was incubated at 37° C. for approximately 16 hours. Then, a mixed solution of hexane and isopropanol (mixing ratio=3:2) was added thereto to stop the reaction. After stirring, the hexane layer was collected, and this layer was evaporated to dryness. A chloroform solution (concentration: 10 mg/mL) was added thereto, and the mixture was spotted onto a thin-layer silica gel plate and developed using a mixed solution of hexane, diethyl ether, and ethyl acetate (mixing ratio=85:15:2). The radioactivity of a portion corresponding to cholesterol oleate was measured using an imaging analyzer BAS-2500 (manufactured by Fujifilm Corp.). A sample non-supplemented with the test drug was similarly treated and assayed. The EC50 value of LCAT activation was calculated according to the expression given below relative to LCAT activity in the sample non-supplemented with the test drug.
wherein X represents the logarithm of the concentration of the test drug;
Y represents the responsiveness (LCAT activity) of the test drug;
Top represents the maximum value (maximum plateau);
Bottom represents the minimum value (minimum plateau); and
EC50 represents the 50% effective concentration.

EC50 [nM] | SMILES
650 | N#Cc1ccc(N2CCC(c3n[nH]c4c3C(O)(C(F)(F)F)CC(=O)N4)CC2)cn1 (stereo not shown) [Example 19, 5-{4-[4-Hydroxy-6-oxo-4-(trifluoromethyl)-4,5,6,7-tetrahydro-1H-pyrazolo[3,4-b]pyridin-3-yl]piperidin-1-yl}pyridine-2-carbonitrile]
120 | N#Cc1cccc(N2CCC(c3n[nH]c4c3C(O)(C(F)(F)F)CC(=O)N4)CC2)c1 (stereo not shown) [Example 23, 3-{4-[4-Hydroxy-6-oxo-4-(trifluoromethyl)-4,5,6,7-tetrahydro-1H-pyrazolo[3,4-b]pyridin-3-yl]piperidin-1-yl}benzonitrile]
140 | O=C1CC(O)(C(F)(F)F)c2c(C3CCN(c4cc(C(F)(F)F)ncn4)CC3)n[nH]c2N1 (stereo not shown) [Example 45, 4-Hydroxy-4-(trifluoromethyl)-3-{1-[6-(trifluoromethyl)pyrimidin-4-yl]piperidin-4-yl}-1,4,5,7-tetrahydro-6H-pyrazolo[3,4-b]pyridin-6-one]
27 | O=C1CC(O)(C(F)(F)F)c2c(C3CCN(c4ccc(-c5ccccc5)nn4)CC3)n[nH]c2N1 (stereo not shown) [Example 105, 4-Hydroxy-3-[1-(6-phenylpyridazin-3-yl)piperidin-4-yl]-4-(trifluoromethyl)-1,4,5,7-tetrahydro-6H-pyrazolo[3,4-b]pyridin-6-one]
26 | O=C1CC(O)(C(F)(F)F)c2c(C3CCN(c4ccc(C(F)(F)F)nc4)CC3)n[nH]c2N1 (stereo not shown) [Example 41, 4-Hydroxy-4-(trifluoromethyl)-3-{1-[6-(trifluoromethyl)pyridin-3-yl]piperidin-4-yl}-1,4,5,7-tetrahydro-6H-pyrazolo[3,4-b]pyridin-6-one]
220 | CC(C)c1cc(N2CCC(c3n[nH]c4c3C(O)(C(F)(F)F)CC(=O)N4)CC2)nc(C(C)C)n1 (stereo not shown) [Example 75, 3-{1-[2,6-di(Propan-2-yl)pyrimidin-4-yl]piperidin-4-yl}-4-hydroxy-4-(trifluoromethyl)-1,4,5,7-tetrahydro-6H-pyrazolo[3,4-b]pyridin-6-one]
32 | COC(=O)c1cc(N2CCC(c3n[nH]c4c3C(O)(C(F)(F)F)CC(=O)N4)CC2)ncc1C(F)(F)F (stereo not shown) [Example 82, Methyl 2-{4-[4-hydroxy-6-oxo-4-(trifluoromethyl)-4,5,6,7-tetrahydro-1H-pyrazolo[3,4-b]pyridin-3-yl]piperidin-1-yl}-5-(trifluoromethyl)pyridine-4-carboxylate]
21 | O=C1CC(O)(C(F)(F)F)c2c(C3CCN(c4cc(I)c(C(F)(F)F)cn4)CC3)n[nH]c2N1 (stereo not shown) [Example 102, 4-Hydroxy-3-{1-[4-iodo-5-(trifluoromethyl)pyridin-2-yl]piperidin-4-yl}-4-(trifluoromethyl)-1,4,5,7-tetrahydro-6H-pyrazolo[3,4-b]pyridin-6-one]
1510 | O=C1CC(O)(C(F)(F)F)c2c(C3CCN(c4ccccc4)CC3)n[nH]c2N1 (stereo not shown) [Example 1, 4-Hydroxy-3-(1-phenylpiperidin-4-yl)-4-(trifluoromethyl)-1,4,5,7-tetrahydro-6H-pyrazolo[3,4-b]pyridin-6-one]
20 | O=C1CC(O)(C(F)(F)F)c2c(C3CCN(c4ccc(OC(F)(F)F)cc4)CC3)n[nH]c2N1 (stereo not shown) [Example 58, 4-Hydroxy-3-{1-[4-(trifluoromethoxy)phenyl]piperidin-4-yl}-4-(trifluoromethyl)-1,4,5,7-tetrahydro-6H-pyrazolo[3,4-b]pyridin-6-one]
300 | O=C1CC(O)(C(F)(F)F)c2c(C3CCN(c4ccc(F)cc4)CC3)n[nH]c2N1 (stereo not shown) [Example 70, 3-[1-(4-Fluorophenyl)piperidin-4-yl]-4-hydroxy-4-(trifluoromethyl)-1,4,5,7-tetrahydro-6H-pyrazolo[3,4-b]pyridin-6-one]
64 | CC(C)Oc1ccc(N2CCC(c3n[nH]c4c3C(O)(C(F)(F)F)CC(=O)N4)CC2)nn1 (stereo not shown) [Example 17, 4-Hydroxy-3-{1-[6-(propan-2-yloxy)pyridazin-3-yl]piperidin-4-yl}-4-(trifluoromethyl)-1,4,5,7-tetrahydro-6H-pyrazolo[3,4-b]pyridin-6-one]
56 | CC(C)c1ccc(N2CCC(c3n[nH]c4c3C(O)(C(F)(F)F)CC(=O)N4)CC2)nc1 (stereo not shown) [Example 64, 4-Hydroxy-3-{1-[5-isopropylpyridin-2-yl]piperidin-4-yl]-4-(trifluoromethyl)-1,4,5,7-tetrahydro-6H-pyrazolo[3,4-b]pyridin-6-one]
220 | N#Cc1cnc(N2CCC(c3n[nH]c4c3C(O)(C(F)(F)F)CC(=O)N4)CC2)cn1 (stereo not shown) [Example 78, 5-{4-[4-Hydroxy-6-oxo-4-(trifluoromethyl)-4,5,6,7-tetrahydro-1H-pyrazolo[3,4-b]pyridin-3-yl]piperidin-1-yl}pyrazine-2-carbonitrile]
2460 | COc1ccnc(N2CCC(c3n[nH]c4c3C(O)(C(F)(F)F)CC(=O)N4)CC2)n1 (stereo not shown) [Example 30, 4-Hydro-3-[1-(4-methoxypyrimidin-2-yl)piperidin-4-yl]-4-(trifluoromethyl)-1,4,5,7-tetrahydro-6H-pyrazolo[3,4-b]pyridin-6-one]
420 | COc1ccc(N2CCC(c3n[nH]c4c3C(O)(C(F)(F)F)CC(=O)N4)CC2)nc1 (stereo not shown) [Example 36, 4-Hydroxy-3-[1-(5-methoxypyridin-2-yl)piperidin-4-yl]-4-(trifluoromethyl)-1,4,5,7-tetrahydro-6H-pyrazolo[3,4-b]pyridin-6-one]
200 | O=C1CC(O)(C(F)(F)F)c2c(C3CCN(c4nc5ccccc5s4)CC3)n[nH]c2N1 (stereo not shown) [Example 25, 3-[1-(1,3-Benzothiazol-2-yl)piperidin-4-yl]-4-hydroxy-4-(trifluoromethyl)-1,4,5,7-tetrahydro-6H-pyrazolo[3,4-b]pyridin-6-one]
18 | O=C1CC(O)(C(F)(F)F)c2c(C3CCN(c4ccc(OC(F)(F)F)cn4)CC3)n[nH]c2N1 (stereo not shown) [Example 76, 4-Hydroxy-3-{1-[5-(trifluoromethoxy)pyridin-2-yl]piperidin-4-yl}-4-(trifluoromethyl)-1,4,5,7-tetrahydro-6H-pyrazolo[3,4-b]pyridin-6-one]
70 | O=C1CC(O)(C(F)(F)F)c2c(C3CCN(c4ccc(OC(F)F)nc4)CC3)n[nH]c2N1 (stereo not shown) [Example 54, 3-{1-[6-(Difluoromethoxy)pyridin-3-yl]piperidin-4-yl}-4-hydroxy-4-(trifluoromethyl)-1,4,5,7-tetrahydro-6H-pyrazolo[3,4-b]pyridin-6-one]
530 | O=C1CC(O)(C(F)(F)F)c2c(C3CCN(c4cc(I)c(C(F)(F)F)cn4)CC3)n[nH]c2N1 (single isomer, unassigned) [Compound 103-2, 4-hydroxy-3-{1-[4-iodo-5-(trifluoromethyl)pyridin-2-yl]piperidin-4-yl}-4-(trifluoromethyl)-1,4,5,7-tetrahydro-6H-pyrazolo[3,4-b]pyridin-6-one]
56 | O=C1CC(O)(C(F)(F)F)c2c(C3CCN(c4ccc(C(F)(F)F)nn4)CC3)n[nH]c2N1 (stereo not shown) [Example 43, 4-Hydroxy-4-(trifluoromethyl)-3-{1-[6-(trifluoromethyl)pyridazin-3-yl]piperidin-4-yl}-1,4,5,7-tetrahydro-6H-pyrazolo[3,4-b]pyridin-6-one]
110 | O=C1CC(O)(C(F)(F)F)c2c(C3CCN(c4ncc(-c5ccccc5)s4)CC3)n[nH]c2N1 (stereo not shown) [Example 89, 4-Hydroxy-3-[1-(5-phenyl-1,3-thiazol-2-yl)piperidin-4-yl]-4-(trifluoromethyl)-1,4,5,7-tetrahydro-6H-pyrazolo[3,4-b]pyridin-6-one]
